Assay type in all cases: cell-based
The target of one assay is Mer (Homo sapiens (Human), UniProt Q12866). The experiment in a line: Mer autophosphorylation ELISA in transient transfected 293A cells. Conditions: cellular, MERTK-transfected 293A cells, phospho-Mer ELISA. The procedure:
293A cells (Thermo Fisher #R70507) were seeded at 1.5×10^6 cells/well onto 100 mm dish (Greiner #664169), in DMEM (Thermo Fisher #11995-040) containing 10% FBS (Thermo Fisher #26140-079), 1% MEM NEAA (Thermo Fisher #11140-050), 1% GlutaMax (Thermo Fisher #35050-061), and 1% Penicillin Streptomycin (Thermo Fisher #15140-122). 293A cells were incubated at 37° C., 5% CO2 for 24 h and then transfected with 6 μg MERTK DNA (Genecopoeia #EX-Z8208-M02) using TransIT LT1 transfection reagent (Mirus-Bio #MIR2305). After 24 h incubation, the transfected 293A cells were seeded at 1×10^5 cells/well onto 96-well plates (Corning #3904) in DMEM growth medium overnight. Test compounds were serially diluted to produce an 8-point dose curve in fresh serum-free medium to a final concentration of 0.3% DMSO (vehicle) and added to the cells and incubated for 1 h. Cells were then immediately lysed with 150 μL of cold 1× lysis buffer [20 mM Tris, 137 mM sodium chloride, 2 mM EDTA, 10% glycerol, 1% NP-40 alternative, 1 mM activated sodium orthovanadate, 1 mM PefaBloc SC (Sigma-Aldrich #11429868001), protease/phosphatase inhibitor tablet (Thermo Fisher #A32959)]. Lysates were clarified by centrifugation and 50 μL/well added into the human phospho-Mer DuoSet IC ELISA (R&D Systems #DYC2579-2). Assay was performed according to manufacturer's instructions and sample phospho-Mer concentrations were extrapolated using human phospho-Mer control (R&D Systems #841793) as a standard. Positive control wells (100% activity) contained DMSO-treated cell lysates. Negative control wells (0% activity) contained reference inhibitor-treated cell lysates. IC50 values were calculated by nonlinear regression analysis using a 4-parameter logistic curve fit in ActivityBase XE (IDBS).
Background: ELISA stands for enzyme-linked immunosorbent assay.

In the next assay the target is KDR (Homo sapiens (Human), UniProt P35968). Description: KDR autophosphorylation ELISA in HUVEC cells. Conditions: cellular, VEGF165-stimulated, phospho-KDR ELISA. Summed up: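 Compound pretreatment (1 h, 0.3% DMSO) of serum-starved HUVEC preceded a 5 min pulse of 100 ng/mL VEGF165, after which cells were lysed. Phospho-KDR was quantified by ELISA relative to stimulated and unstimulated controls.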
Chain of KDR (P35968 20-1356): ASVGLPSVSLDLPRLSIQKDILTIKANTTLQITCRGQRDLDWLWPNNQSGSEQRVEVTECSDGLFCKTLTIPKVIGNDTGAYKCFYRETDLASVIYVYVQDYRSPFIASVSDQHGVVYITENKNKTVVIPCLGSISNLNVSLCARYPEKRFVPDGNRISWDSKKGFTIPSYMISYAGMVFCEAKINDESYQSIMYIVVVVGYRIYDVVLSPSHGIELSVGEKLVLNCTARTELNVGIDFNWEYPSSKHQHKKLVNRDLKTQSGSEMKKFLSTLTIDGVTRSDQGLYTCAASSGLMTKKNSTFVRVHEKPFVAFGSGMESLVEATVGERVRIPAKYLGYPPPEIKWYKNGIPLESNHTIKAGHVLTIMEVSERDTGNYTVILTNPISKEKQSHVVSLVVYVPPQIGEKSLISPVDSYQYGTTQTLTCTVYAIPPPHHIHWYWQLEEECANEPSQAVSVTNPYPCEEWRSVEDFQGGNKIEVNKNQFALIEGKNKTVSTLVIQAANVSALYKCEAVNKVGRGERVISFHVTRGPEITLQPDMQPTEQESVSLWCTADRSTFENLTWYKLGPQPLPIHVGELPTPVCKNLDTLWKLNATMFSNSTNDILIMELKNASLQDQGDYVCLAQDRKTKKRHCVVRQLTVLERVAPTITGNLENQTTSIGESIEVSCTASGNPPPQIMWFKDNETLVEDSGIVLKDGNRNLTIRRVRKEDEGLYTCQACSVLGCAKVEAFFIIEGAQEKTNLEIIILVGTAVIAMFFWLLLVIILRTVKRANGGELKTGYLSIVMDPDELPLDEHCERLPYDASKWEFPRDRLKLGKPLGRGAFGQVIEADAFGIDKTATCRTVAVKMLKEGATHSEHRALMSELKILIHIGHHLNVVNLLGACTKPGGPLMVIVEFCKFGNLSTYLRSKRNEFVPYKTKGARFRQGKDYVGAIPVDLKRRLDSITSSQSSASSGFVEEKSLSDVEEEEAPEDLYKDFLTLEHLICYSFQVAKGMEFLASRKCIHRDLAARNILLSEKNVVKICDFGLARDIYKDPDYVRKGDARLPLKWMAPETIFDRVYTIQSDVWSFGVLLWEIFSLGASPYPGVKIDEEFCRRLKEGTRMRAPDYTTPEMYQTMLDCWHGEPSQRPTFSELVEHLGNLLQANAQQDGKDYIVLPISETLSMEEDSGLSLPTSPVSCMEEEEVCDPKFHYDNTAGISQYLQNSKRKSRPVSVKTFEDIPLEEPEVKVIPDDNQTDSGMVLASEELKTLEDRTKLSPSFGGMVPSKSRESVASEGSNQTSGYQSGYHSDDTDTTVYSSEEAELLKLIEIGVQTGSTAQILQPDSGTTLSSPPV

A further assay has as its target AXL (Homo sapiens (Human), UniProt P30530). The experiment in a line: AXL autophosphorylation ELISA in A-172 cells. The conditions noted are these: cellular, Gas6-stimulated, phospho-AXL ELISA. Put shortly:
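A-172 glioblastoma cells, serum-starved 24 h, took compounds for 1 h (8-point curve, 0.3% DMSO) before 15 min stimulation with 1 μg/mL recombinant human Gas6. Lysate phospho-AXL measured by ELISA against a phospho-AXL standard, normalized to DMSO (100%) and reference inhibitor (0%); IC50 from 4-parameter logistic fit.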

The target of another assay is Met (Homo sapiens (Human), UniProt P08581). The experiment in a line: Met autophosphorylation ELISA in PC-3 cells. Conditions: cellular, HGF-stimulated, phospho-Met ELISA, read-out: c-Met IC50. Put shortly:
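PC-3 cells serum-starved 3 h were treated 1 h with an 8-point compound series (0.3% DMSO), then stimulated 10 min with 100 ng/mL human HGF. Phospho-Met (panTyr) in lysates was measured by sandwich ELISA against DMSO (100%) and reference-inhibitor (0%) controls, and IC50 came from a 4-parameter logistic fit.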

The structures appear in SMILES notation. Some results are limits rather than exact numbers.

Chain of AXL (P30530 26-894): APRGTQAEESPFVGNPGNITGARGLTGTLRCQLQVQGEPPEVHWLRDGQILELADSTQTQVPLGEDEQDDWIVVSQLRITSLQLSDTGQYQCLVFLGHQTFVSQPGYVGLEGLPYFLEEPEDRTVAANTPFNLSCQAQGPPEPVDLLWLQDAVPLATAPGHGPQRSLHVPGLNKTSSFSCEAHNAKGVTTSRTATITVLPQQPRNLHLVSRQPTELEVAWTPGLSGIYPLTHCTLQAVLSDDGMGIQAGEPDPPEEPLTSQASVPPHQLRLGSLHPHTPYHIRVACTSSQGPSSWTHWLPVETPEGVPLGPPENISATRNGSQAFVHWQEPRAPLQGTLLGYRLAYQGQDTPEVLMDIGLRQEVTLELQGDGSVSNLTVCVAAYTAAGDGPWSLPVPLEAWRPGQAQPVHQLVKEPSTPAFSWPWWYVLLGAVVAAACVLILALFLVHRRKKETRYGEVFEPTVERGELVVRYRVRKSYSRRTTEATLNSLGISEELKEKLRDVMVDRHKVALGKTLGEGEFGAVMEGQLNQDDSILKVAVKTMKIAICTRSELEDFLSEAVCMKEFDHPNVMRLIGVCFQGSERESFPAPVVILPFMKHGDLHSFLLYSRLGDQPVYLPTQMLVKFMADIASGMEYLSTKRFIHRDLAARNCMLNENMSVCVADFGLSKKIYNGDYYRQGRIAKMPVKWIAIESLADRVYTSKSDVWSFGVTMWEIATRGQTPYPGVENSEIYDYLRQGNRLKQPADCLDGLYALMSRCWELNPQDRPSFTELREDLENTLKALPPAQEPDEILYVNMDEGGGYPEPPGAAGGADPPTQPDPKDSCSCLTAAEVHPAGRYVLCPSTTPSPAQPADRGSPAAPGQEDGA
Chain of Met (P08581 25-1390): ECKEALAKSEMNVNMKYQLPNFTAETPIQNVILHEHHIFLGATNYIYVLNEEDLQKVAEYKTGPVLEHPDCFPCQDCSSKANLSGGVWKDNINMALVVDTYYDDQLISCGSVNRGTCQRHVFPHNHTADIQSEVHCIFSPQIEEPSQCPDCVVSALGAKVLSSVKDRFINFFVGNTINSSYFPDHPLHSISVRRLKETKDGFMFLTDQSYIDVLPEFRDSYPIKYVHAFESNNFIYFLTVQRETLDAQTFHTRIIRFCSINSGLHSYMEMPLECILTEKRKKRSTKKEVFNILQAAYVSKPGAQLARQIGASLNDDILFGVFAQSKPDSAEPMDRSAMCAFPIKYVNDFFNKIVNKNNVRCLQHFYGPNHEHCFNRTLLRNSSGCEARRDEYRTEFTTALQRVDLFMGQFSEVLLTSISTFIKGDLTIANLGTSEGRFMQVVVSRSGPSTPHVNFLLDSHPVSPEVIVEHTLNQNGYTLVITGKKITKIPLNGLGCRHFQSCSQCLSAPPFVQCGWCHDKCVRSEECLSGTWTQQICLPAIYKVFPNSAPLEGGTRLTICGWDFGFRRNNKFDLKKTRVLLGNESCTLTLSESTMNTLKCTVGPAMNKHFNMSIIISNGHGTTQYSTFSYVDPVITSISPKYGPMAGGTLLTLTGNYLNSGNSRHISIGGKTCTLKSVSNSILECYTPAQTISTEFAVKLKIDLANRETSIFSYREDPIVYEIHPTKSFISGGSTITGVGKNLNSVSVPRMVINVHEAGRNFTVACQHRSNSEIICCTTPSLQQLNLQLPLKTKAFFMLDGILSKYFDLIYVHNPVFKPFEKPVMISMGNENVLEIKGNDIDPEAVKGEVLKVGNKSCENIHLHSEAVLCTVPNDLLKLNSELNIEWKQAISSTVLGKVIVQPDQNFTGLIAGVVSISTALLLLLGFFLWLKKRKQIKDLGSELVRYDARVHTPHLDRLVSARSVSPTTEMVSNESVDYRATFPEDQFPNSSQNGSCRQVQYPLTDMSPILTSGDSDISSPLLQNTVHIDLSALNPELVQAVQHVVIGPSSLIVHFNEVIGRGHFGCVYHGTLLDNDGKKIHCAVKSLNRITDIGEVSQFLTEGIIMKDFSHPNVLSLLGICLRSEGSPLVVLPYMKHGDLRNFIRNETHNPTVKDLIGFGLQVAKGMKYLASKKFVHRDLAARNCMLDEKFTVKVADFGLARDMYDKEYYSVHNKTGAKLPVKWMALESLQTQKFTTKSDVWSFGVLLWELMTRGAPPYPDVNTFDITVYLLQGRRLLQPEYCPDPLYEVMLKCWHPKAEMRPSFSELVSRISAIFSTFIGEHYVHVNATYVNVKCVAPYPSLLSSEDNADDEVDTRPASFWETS
Chain of Mer (Q12866 21-999): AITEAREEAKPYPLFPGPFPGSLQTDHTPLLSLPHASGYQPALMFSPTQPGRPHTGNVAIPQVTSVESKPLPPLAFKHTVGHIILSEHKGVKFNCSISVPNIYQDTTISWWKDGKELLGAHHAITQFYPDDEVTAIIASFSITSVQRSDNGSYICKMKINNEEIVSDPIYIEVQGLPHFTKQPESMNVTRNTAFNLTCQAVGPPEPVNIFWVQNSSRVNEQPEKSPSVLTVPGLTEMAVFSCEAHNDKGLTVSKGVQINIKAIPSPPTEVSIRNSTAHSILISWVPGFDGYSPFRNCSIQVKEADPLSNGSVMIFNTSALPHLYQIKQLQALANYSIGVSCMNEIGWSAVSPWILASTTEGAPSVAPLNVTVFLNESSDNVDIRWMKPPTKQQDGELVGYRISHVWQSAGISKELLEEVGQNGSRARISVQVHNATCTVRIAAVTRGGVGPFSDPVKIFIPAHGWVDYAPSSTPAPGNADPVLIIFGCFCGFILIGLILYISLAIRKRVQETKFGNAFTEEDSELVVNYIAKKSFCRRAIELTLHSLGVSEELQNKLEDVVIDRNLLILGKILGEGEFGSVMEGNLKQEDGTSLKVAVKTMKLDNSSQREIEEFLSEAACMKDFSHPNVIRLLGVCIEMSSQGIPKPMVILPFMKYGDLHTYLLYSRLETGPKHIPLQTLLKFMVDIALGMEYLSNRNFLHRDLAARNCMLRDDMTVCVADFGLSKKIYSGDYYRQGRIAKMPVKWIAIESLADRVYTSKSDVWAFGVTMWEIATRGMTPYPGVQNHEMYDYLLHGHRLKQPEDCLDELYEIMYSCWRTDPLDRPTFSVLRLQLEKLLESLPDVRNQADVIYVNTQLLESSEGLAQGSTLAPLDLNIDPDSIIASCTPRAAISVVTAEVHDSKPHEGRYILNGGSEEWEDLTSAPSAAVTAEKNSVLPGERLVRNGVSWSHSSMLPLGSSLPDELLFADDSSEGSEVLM

For the compound `COc1cc2nccc(Oc3ncc(NC(=O)C4(C(=O)Nc5ccc(F)cc5)CC4)cc3F)c2cc1-c1nnco1` [Compound 67, 1-N′-[5-Fluoro-6-[7-methoxy-6-(1,3,4-oxadiazol-2-yl)quinolin-4-yl]oxypyridin-3-yl]-1-N-(4-fluorophenyl)cyclopropane-1,1-dicarboxamide], the IC50 was 10 to 100 nM against Mer, more than 300 nM against KDR, 10 to 100 nM against AXL and 10 to 100 nM on Met.

On to `COc1cc2nccc(Oc3ncc(NC(=O)C4(C(=O)Nc5ccc(F)cc5)CC4)cc3Cl)c2cc1-c1nnco1` [Compound 68, 1-N′-[5-Chloro-6-[7-methoxy-6-(1,3,4-oxadiazol-2-yl)quinolin-4-yl]oxypyridin-3-yl]-1-N-(4-fluorophenyl)cyclopropane-1,1-dicarboxamide], for which the IC50 at Mer was 10 to 100 nM; against KDR, more than 300 nM; against AXL, 10 to 100 nM; on Met, 10 to 100 nM.

Consider `COc1cc2nccc(Oc3ncc(NC(=O)C4(C(=O)Nc5ccc(F)cc5)CC4)cc3Cl)c2cc1-c1ncc[nH]1` [Compound 71, 1-N′-[5-Chloro-6-[6-(1H-imidazol-2-yl)-7-methoxyquinolin-4-yl]oxypyridin-3-yl]-1-N-(4-fluorophenyl)cyclopropane-1,1-dicarboxamide], for which the IC50 was 10 to 100 nM on Mer, more than 300 nM at KDR, 10 to 100 nM at AXL and 10 to 100 nM on Met.

`COc1cc2nccc(Oc3ncc(NC(=O)C4(C(=O)Nc5ccc(F)cc5)CC4)cc3F)c2cc1-c1ncc[nH]1` [Compound 72, 1-N′-[5-Fluoro-6-[6-(1H-imidazol-2-yl)-7-methoxyquinolin-4-yl]oxypyridin-3-yl]-1-N-(4-fluorophenyl)cyclopropane-1,1-dicarboxamide]: the IC50 was 10 to 100 nM against Mer, more than 300 nM on KDR, not above 10 nM on AXL and 10 to 100 nM at Met.

Regarding `COc1cc2nccc(Oc3ccc(NC(=O)C4(C(=O)Nc5ccc(F)cc5)CC4)c(OC)n3)c2nc1OC` [Compound 86, 1-N′-[6-[(6,7-Dimethoxy-1,5-naphthyridin-4-yl)oxy]-2-methoxypyridin-3-yl]-1-N-(4-fluorophenyl)cyclopropane-1,1-dicarboxamide], the IC50 at Mer is 10 to 100 nM; on KDR, more than 300 nM; at AXL, 10 to 100 nM; on Met, 100 to 300 nM.

`COc1cc2nccc(Oc3ccc(NC(=O)C4(C(=O)Nc5ccc(F)cc5)CC4)c(C)n3)c2nc1OC` [Compound 87, 1-N′-[6-[(6,7-Dimethoxy-1,5-naphthyridin-4-yl)oxy]-2-methylpyridin-3-yl]-1-N-(4-fluorophenyl)cyclopropane-1,1-dicarboxamide]: the IC50 is more than 300 nM on Mer, more than 300 nM at KDR, 10 to 100 nM against AXL and more than 300 nM on Met.

For the compound `COc1cc2nccc(Oc3nc(F)c(NC(=O)C4(C(=O)Nc5ccc(F)cc5)CC4)cc3F)c2nc1OC` [Compound 96, 1-N′-[6-[(6,7-Dimethoxy-1,5-naphthyridin-4-yl)oxy]-2,5-difluoropyridin-3-yl]-1-N-(4-fluorophenyl)cyclopropane-1,1-dicarboxamide], the IC50 against Mer was 10 to 100 nM; against KDR, more than 300 nM; at AXL, not above 10 nM; at Met it was 10 to 100 nM.

On to `COCCOc1cc2nccc(Oc3ncc(NC(=O)C4(C(=O)Nc5ccc(F)cc5)CC4)cc3F)c2nc1OC` [Compound 116, 1-N′-[5-Fluoro-6-[[6-methoxy-7-(2-methoxyethoxy)-1,5-naphthyridin-4-yl]oxy]pyridin-3-yl]-1-N-(4-fluorophenyl)cyclopropane-1,1-dicarboxamide], for which the IC50 was 10 to 100 nM against Mer, more than 300 nM against KDR, 10 to 100 nM at AXL and 100 to 300 nM on Met.

Consider `COc1ccc(COc2cc3nccc(Oc4ncc(NC(=O)C5(C(=O)Nc6ccc(F)cc6)CC5)cc4F)c3nc2OC)cc1` [Compound 120, 1-N′-[5-Fluoro-6-[[6-methoxy-7-[(4-methoxyphenyl)methoxy]-1,5-naphthyridin-4-yl]oxy]pyridin-3-yl]-1-N-(4-fluorophenyl)cyclopropane-1,1-dicarboxamide], for which the concentration for half-maximal inhibition (IC50) is more than 300 nM at Mer, more than 300 nM at KDR, 100 to 300 nM at AXL and 100 to 300 nM on Met.

`COc1nc2c(Oc3ncc(NC(=O)C4(C(=O)Nc5ccc(F)cc5)CC4)cc3F)ccnc2cc1OCCCN1CCOCC1` [Compound 122, 1-N′-[5-Fluoro-6-[[6-methoxy-7-(3-morpholin-4-ylpropoxy)-1,5-naphthyridin-4-yl]oxy]pyridin-3-yl]-1-N-(4-fluorophenyl)cyclopropane-1,1-dicarboxamide]: the concentration for half-maximal inhibition (IC50) against Mer is 10 to 100 nM; against KDR, more than 300 nM; against AXL it was 10 to 100 nM; at Met, 10 to 100 nM.

Take `COc1nc2c(Oc3ncc(NC(=O)C4(C(=O)Nc5ccc(F)cc5)CC4)cc3F)ccnc2cc1OCCN1CCOCC1` [Compound 123, 1-N′-[5-Fluoro-6-[[6-methoxy-7-(2-morpholin-4-ylethoxy)-1,5-naphthyridin-4-yl]oxy]pyridin-3-yl]-1-N-(4-fluorophenyl)cyclopropane-1,1-dicarboxamide]: the IC50 at Mer is 10 to 100 nM; against KDR, more than 300 nM; against AXL, 10 to 100 nM; at Met, 10 to 100 nM.

`COc1nc2c(Oc3ncc(NC(=O)C4(C(=O)Nc5ccc(F)cc5)CC4)cc3F)ccnc2cc1OCC(N)=O` [Compound 124, 1-N′-[6-[[7-(2-Amino-2-oxoethoxy)-6-methoxy-1,5-naphthyridin-4-yl]oxy]-5-fluoropyridin-3-yl]-1-N-(4-fluorophenyl)cyclopropane-1,1-dicarboxamide]: the IC50 is 100 to 300 nM at Mer, more than 300 nM on KDR, 100 to 300 nM at AXL and 100 to 300 nM at Met.

On to `COc1nc2c(Oc3ncc(NC(=O)C4(C(=O)Nc5ccc(F)cc5)CC4)cc3F)ccnc2cc1OCCCN(C)C` [Compound 125, 1-N′-[6-[[7-[3-(Dimethylamino)propoxy]-6-methoxy-1,5-naphthyridin-4-yl]oxy]-5-fluoropyridin-3-yl]-1-N-(4-fluorophenyl)cyclopropane-1,1-dicarboxamide], for which the IC50 is 10 to 100 nM against Mer, more than 300 nM at KDR, 10 to 100 nM against AXL and 10 to 100 nM on Met.

On to `COc1nc2c(Oc3ncc(NC(=O)C4(C(=O)Nc5ccc(F)cc5)CC4)cc3F)ccnc2cc1OCC(O)CO` (stereo not drawn) [Compound 127, 1-N′-[6-[[7-(2,3-Dihydroxypropoxy)-6-methoxy-1,5-naphthyridin-4-yl]oxy]-5-fluoropyridin-3-yl]-1-N-(4-fluorophenyl)cyclopropane-1,1-dicarboxamide], for which the IC50 at Mer is 100 to 300 nM; against KDR, more than 300 nM; on AXL, 10 to 100 nM; on Met, 10 to 100 nM.

Turning to `COc1nc2c(Oc3ccc(NC(=O)C4(C(=O)Nc5ccc(F)cc5)CC4)cn3)ncnc2cc1OCCCN1CCOCC1` [Compound 155, 1-N-(4-Fluorophenyl)-1-N′-[6-[6-methoxy-7-(3-morpholin-4-ylpropoxy)pyrido[3,2-d]pyrimidin-4-yl]oxypyridin-3-yl]cyclopropane-1,1-dicarboxamide], the IC50 against Mer is 100 to 300 nM; at KDR, more than 300 nM; against AXL it was 10 to 100 nM; at Met, 100 to 300 nM.

For orientation: IC50 means the midpoint of a concentration-inhibition curve.

The values are drawn from patent publication US11673897B2, “Compounds for the treatment of kinase-dependent disorders” (Exelixis, Inc., priority 2018, dated 2023).
